System: 3T3 L1 fibroblasts
Assay: RT-PCR analysis of adipocyte specific transcripts as secondary test of adipocyte differentiation
Type: cell-based
Conditions: with 10 μg/ml insulin
Protocol: N-arachidonoyl-D-alanine is subjected to the Oil Red O assay, discussed in more detail supra. In the assay, 3T3 L1 fibroblasts are cultured in DMEM supplemented with 10% calf serum. Two days after confluence, cells are treated with 0.1% DMSO (vehicle), 20-100 μM N-arachidonoyl-D-alanine in vehicle, or 1 μM GW347845 (Cobb et al., J. Med. Chem., 41:5055-5069, 1998) in vehicle. Each of the three treatments is administered to the cells with 10 μg/ml of insulin. After seven days of treatment with GW347845 and 10-14 days of treatment with N-arachidonoyl-D-alanine, cells are fixed and stained with Oil Red O. Red staining indicates lipid droplets in the cytoplasm. RT-PCR analysis of expressed genes is performed as a secondary test of adipocyte differentiation. Messenger RNA from fibroblasts is harvested and RT-PCR is performed to amplify adipocyte specific transcripts, e.g., PPARγ2 and aP2, or the transcript of a ubiquitous housekeeping gene, e.g., GAPDH. PCR products are analyzed on 1% agarose gel and stained with ethidium bromide. […] Expression of the housekeeping gene GAPDH is assayed to ensure equal expression in all samples.

[1] = 20-100 μM, 10-14 days of treatment

## COC(=O)c1ccccc1N[C@@H](Cc1ccc(OCCc2nc(-c3ccccc3)oc2C)cc1)C(=O)O [GW347845]
1 μM, seven days of treatment
  PPARγ2 transcript induction relative to vehicle-treated cells (RT-PCR): induced significantly
  aP2 transcript induction relative to vehicle-treated cells (RT-PCR): induced significantly

## CCCCC/C=C\C/C=C\C/C=C\C/C=C\CCCC(=O)N[C@H](C)C(=O)O [N-arachidonoyl-D-alanine]
[1]
  PPARγ2 transcript induction relative to vehicle-treated cells (RT-PCR): induced significantly
  aP2 transcript induction relative to vehicle-treated cells (RT-PCR): induced significantly

Source: patent publication US7544714B2, “Lipid-amino acid conjugates and methods of use” (University of Massachusetts, priority 2004, dated 2009)
